Data: patent US20260027103A1, “PHARMACEUTICAL COMPOSITIONS COMPRISING A QUINOLONE COMPOUND FOR IRRITABLE BOWEL SYNDROME” (OTSUKA PHARMACEUTICAL CO., LTD., priority 2022, published 2026)

How the values were obtained:
[1] = system: restraint stress (RS) rat model; test: Restraint stress (RS) rat model: body weight, food intake, fecal pellet output; format: in vivo, Sprague-Dawley (SD) rats
Excerpt: Male Sprague-Dawley (SD) rats, weighting 200-250 g were purchased from Charles River Laboratories Beijing and housed in an SPF grade animal facility of OSRI in individual ventilated cages (IVC), with 3 rats per cage. All animals were maintained with a 12-hour light/dark cycle and had free access to rodent chow and water. All animal study procedures were in accordance with Animal Welfare Regulations and approved by the Institutional Animal Care and Use Committee (IACUC) of OSRI.
Rats (from group #2 and group #3) were submitted to a 2-hour restraint in a plastic cylinder daily in the PM for 10 consecutive days (D1 to D10). Rats from the control group (group #1) remained in their individual cages, undisturbed throughout the entire experiment. After 3 days of repeated RS modeling, from D4 to D10, the rats from group #2 and group #3 were treated in the morning (4h ahead of PM restraint) with vehicle (5% AG) and the test substance (2.5 mg/kg) respectively for 7 consecutive days. Fecal pellet output was used to estimate distal colonic motility as a validated index (Hong S et al., Gut 2009, 58:202-210). During the 2-hour restraint period, the rat's fecal pellet output was collected and counted, same for the rats in control group during the same 2-hour mock observation period.

[2] = system: histamine; test: Urine histamine level by ELISA in RS model; format: in vivo, Sprague Dawley Rats; settings: rat, 2.5 mg/kg PO, day 7 (4 days post treatment), p<0.01 vs RS group, FIG. 6
Description: (§1) Sprague Dawley Rats were submitted to a 2h restraint in a plastic cylinder daily for 7 consecutive days as described above. In control group, the rats were remained in an individual cage, undisturbed, throughout the experiment.
Urine samples were collected every day after the restraint. A plastic dish was placed underneath restraint tube and the urine sample was collected. It is immediately transferred into a tube and stored at-800C until further analysis. Histamine was measured with the Histamine ELISA Kit ((CAT #: D751012, BBI) according to the manufacturer's instructions as follows.
Calculate the required number of slats in advance, and take out the kit 30 minutes before the test and restore it to room temperature. • 2. Add 50 μL of standard working liquid and test sample to each reaction hole. The standard needs to be re-drilled. 50 μL of biotin-labeled histamine antibody working solution was added to each reaction well immediately, and the plate was sealed and incubated at 37° C. for 45 min. • 3. […] OD value was measured with 450 nm wavelength of enzyme label instrument. • 9. Draw a standard curve with the concentration of standard substance as the horizontal coordinate and absorbance as the vertical coordinate. • 10. Statistical significance was either calculated by two-tailed T-test (visceral sensitivity on day 3) or one-way ANOVA using Dunnett's multiple comparison. […]

[3] = system: restraint stress (RS) rat model; test: Visceromotor response to colorectal distention in RS model; format: in vivo, Sprague Dawley Rats; settings: 2.5 mg/kg PO, day 7 (4 days post dose), p<0.05 vs RS group, FIG. 5
Description: as §1
Colonic distension—A polyethylene balloon (3 cm long, 1.5 cm max. diameter) was secured to tubing attached to a blood pressure meter to be used to perform colonic distension. The balloon was lubricated and placed into the rat's distal colon so that the tip of the balloon was 2 cm proximal to the anus. Using the blood pressure meter distension device, rats were restrained in a plastic containment device and allowed to acclimate for 10 min before testing. The rats received phasic distension (0-100 mmHg in 5-mmHg ascending increments) of the colon until the first contraction of the testicles, tail or abdominal musculature occurred. This visualization was performed by three independent observers. […] Compliance of the colon was not measured given the rapid distension protocol used in this study. The colonic distensions were repeated three times with 5-min interstimulus intervals and the mean pressures at the nociceptive threshold were recorded for each rat.
Statistical significance was either calculated by two-tailed T-test (visceral sensitivity on day 3) or one-way ANOVA using Dunnett's multiple comparison. P<0.05 was considered statistically significant.

Compound: Cc1c(-c2cnc(N)c(C#N)c2)c(F)cc2c(=O)c(C(=O)O)cn(C3CC3)c12 [OPS-2071, 1-cyclopropyl-6-fluoro-1,4-dihydro-8-methyl-7-(2-amino-3-cyano-5-pyridyl)-4-oxo-3-quinoline-carboxylic acid]
- body weight / body weight change (BWC) % in RS-IBS model ([1]; 2.5 mg/kg PO QD for 7 days from D4, group #3 vs. RS vehicle group #2, FIGS. 1 and 2): body weight drop caused by restraint stress is improved
- fecal pellet output during 2-hour restraint ([1]; 2.5 mg/kg PO from day 4, group #3 vs. group #2, FIG. 3): a decrease of the fecal pellet output was observed
- food intake (appetite) in RS model ([1]; 2.5 mg/kg PO, monitored from 3 days post treatment initiation, group #3 vs. group #2): protective effect on decreased appetite
- urine histamine level [2]: decreased
- visceral sensitivity (visceromotor response to colorectal distention, mmHg) [3]: a decrease in visceral sensitivity
